Experimental data as given in ChEMBL document CHEMBL3751811, “The discovery of a novel antibiotic for the treatment of Clostridium difficile infections: a story of an effective academic-industrial partnership” (Medchemcomm, 2015).
≈ marks a conversion by molar mass, not a printed value.

Key:
[1] = system: Mycobacterium tuberculosis; experiment: Antibacterial activity against Mycobacterium tuberculosis H37Rv hypoxia-induced latency form by spot culture growth inhibition assay; type: functional
[2] = biological target: DNA gyrase subunit A/DNA gyrase subunit B (Mycobacterium tuberculosis (strain ATCC 25618 / H37Rv), UniProt P9WG45+P9WG47); experiment: Inhibition of Mycobacterium tuberculosis H37Rv DNA gyrase supercoiling activity
[3] = Inhibition of Escherichia coli DNA gyrase supercoiling activity
Staphylococcus aureus [4] = experiment: Antibacterial activity against Staphylococcus aureus ATCC 29213 assessed as growth inhibition after 20 hrs by broth dilution method; type: functional; conditions: ATCC 29213, 20 h
Clostridioides difficile [5] = experiment: Antibacterial activity against Clostridium difficile R20291 assessed as growth inhibition; type: functional
Escherichia coli [6] = experiment: Antibacterial activity against Escherichia coli NCTC 10418 assessed as growth inhibition; type: functional
[7] = Inhibition of Escherichia coli topoisomerase 4-mediated DNA decatenation activity
Clostridioides difficile [8] = experiment: Antibacterial activity against Clostridium difficile CD 630 assessed as growth inhibition; type: functional
DNA gyrase = DNA gyrase (Staphylococcus aureus, UniProt P0A0K8+P20831); experiment: Inhibition of Staphylococcus aureus DNA gyrase assessed as reduction in enzyme-catalyzed supercoiling of relaxed circular pBR322 DNA incubated for 30 mins by agarose gel electrophoresis; type: protein-complex assay
Staphylococcus aureus [9] = experiment: Antibacterial activity against clinical isolates of Staphylococcus aureus EMRSA-16 assessed as growth inhibition after 20 hrs by broth dilution method; type: functional; conditions: EMRSA-16, 20 h
Escherichia coli [10] = experiment: Antibacterial activity against Escherichia coli MC 1061 assessed as growth inhibition; type: functional
[11] = Inhibition of Clostridium difficile DNA gyrase supercoiling activity; parameters: species or system Clostridioides difficile
[12] = system: Mycobacterium tuberculosis; experiment: Antibacterial activity against Mycobacterium tuberculosis H37Rv logarithmic phase forms by spot culture growth inhibition assay; type: functional
[13] = Inhibition of Escherichia coli topoisomerase 4-mediated DNA relaxation activity
[14] = Inhibition of Staphylococcus aureus topoisomerase 4 assessed as inhibition of decatenation of catenated kinetoplast DNA after 30 mins by agarose gel electrophoresis

DNA gyrase, sequence (P0A0K8 whole entry): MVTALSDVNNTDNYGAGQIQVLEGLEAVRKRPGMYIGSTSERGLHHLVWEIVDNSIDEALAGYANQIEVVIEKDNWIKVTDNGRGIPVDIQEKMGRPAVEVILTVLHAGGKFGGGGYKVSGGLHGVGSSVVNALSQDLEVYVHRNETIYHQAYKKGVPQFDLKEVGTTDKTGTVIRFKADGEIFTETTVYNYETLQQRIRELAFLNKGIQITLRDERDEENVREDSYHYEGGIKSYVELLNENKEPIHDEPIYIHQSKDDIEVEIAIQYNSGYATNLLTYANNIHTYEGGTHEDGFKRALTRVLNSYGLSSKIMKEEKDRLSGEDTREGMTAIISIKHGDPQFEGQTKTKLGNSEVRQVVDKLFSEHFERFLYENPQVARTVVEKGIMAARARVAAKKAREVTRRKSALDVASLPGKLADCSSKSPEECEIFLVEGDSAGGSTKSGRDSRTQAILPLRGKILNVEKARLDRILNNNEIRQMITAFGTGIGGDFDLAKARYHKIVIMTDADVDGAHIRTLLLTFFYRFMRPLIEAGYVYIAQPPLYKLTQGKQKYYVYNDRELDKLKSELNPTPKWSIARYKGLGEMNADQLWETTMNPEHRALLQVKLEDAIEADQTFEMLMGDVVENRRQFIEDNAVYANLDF
DNA gyrase, sequence (P20831 whole entry): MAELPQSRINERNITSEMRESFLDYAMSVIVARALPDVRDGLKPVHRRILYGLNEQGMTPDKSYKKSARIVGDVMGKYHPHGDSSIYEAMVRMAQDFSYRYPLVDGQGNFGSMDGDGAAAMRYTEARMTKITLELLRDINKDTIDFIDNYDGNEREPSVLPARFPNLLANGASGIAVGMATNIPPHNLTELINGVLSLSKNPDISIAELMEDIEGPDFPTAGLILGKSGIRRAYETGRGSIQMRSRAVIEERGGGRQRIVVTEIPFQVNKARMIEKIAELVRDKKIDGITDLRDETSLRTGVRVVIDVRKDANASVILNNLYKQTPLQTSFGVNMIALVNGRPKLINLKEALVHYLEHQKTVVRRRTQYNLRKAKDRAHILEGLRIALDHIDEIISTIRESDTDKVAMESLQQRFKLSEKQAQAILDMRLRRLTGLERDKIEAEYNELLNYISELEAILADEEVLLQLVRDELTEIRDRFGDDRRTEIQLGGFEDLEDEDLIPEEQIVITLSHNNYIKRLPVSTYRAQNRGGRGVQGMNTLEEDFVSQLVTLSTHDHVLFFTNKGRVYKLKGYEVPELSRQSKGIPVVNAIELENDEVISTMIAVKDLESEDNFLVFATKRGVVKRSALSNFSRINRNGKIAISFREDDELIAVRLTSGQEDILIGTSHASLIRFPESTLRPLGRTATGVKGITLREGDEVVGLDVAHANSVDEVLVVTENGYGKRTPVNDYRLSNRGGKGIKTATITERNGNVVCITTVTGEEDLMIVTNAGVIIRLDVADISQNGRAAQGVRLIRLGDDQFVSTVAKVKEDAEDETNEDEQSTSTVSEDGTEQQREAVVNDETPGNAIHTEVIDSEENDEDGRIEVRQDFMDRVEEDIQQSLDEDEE
DNA gyrase subunit A/DNA gyrase subunit B, sequence (P9WG45 whole entry): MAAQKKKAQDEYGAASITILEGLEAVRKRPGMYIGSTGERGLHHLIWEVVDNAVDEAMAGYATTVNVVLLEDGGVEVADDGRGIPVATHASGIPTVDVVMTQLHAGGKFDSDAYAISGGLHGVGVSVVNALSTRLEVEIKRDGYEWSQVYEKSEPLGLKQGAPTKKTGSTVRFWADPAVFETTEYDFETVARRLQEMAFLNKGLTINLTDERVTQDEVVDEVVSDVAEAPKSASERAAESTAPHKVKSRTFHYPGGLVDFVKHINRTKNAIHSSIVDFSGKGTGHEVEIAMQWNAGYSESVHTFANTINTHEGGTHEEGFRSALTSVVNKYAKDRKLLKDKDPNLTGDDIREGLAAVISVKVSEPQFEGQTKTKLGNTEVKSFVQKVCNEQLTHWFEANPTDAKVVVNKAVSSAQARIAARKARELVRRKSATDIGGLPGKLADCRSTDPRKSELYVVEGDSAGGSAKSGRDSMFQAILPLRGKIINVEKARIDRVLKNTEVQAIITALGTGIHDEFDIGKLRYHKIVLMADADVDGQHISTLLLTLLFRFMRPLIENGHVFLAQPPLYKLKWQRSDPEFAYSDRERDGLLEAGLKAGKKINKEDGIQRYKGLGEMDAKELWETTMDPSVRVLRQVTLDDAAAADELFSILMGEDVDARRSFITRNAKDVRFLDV
DNA gyrase subunit A/DNA gyrase subunit B, sequence (P9WG47 whole entry): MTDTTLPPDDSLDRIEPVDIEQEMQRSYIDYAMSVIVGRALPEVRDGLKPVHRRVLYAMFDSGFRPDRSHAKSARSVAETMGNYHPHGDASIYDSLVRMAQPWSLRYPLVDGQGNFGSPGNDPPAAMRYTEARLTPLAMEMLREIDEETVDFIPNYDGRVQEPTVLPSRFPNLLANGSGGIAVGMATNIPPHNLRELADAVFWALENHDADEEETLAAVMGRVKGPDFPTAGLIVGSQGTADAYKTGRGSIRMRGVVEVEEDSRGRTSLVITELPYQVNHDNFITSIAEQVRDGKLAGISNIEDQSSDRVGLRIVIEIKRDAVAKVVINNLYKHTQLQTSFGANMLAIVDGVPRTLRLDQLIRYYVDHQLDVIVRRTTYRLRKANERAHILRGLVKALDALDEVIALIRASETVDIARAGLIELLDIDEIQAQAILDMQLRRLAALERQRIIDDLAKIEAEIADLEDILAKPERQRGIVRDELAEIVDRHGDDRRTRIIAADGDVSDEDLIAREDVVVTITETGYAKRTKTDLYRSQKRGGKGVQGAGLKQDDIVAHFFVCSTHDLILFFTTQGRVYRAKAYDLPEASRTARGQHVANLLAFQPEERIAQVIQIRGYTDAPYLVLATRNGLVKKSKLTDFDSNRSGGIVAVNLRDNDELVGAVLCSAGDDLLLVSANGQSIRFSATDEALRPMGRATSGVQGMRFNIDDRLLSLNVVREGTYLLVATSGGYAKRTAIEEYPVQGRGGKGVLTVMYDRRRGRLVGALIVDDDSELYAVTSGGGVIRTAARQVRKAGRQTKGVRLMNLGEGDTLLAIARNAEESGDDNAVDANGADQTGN

Compound: Nc1ccc(-c2nc3cc(-c4ccc5[nH]c(-c6ccc(N)cc6)nc5c4)ccc3[nH]2)cc1
- MIC90 [1]: 8 µg/mL (≈ 19.2 µM)
- IC50 [2]: 11.3 µM
- IC50 [3]: > 50 µM
- MIC90 (Staphylococcus aureus [4]): 0.125 µg/mL (≈ 0.3 µM)
- MIC90 (Clostridioides difficile [5]): 0.125 µg/mL (≈ 0.3 µM)
- MIC90 (Escherichia coli [6]): > 64 µg/mL
- IC50 [7]: 8 µM
- MIC90 (Clostridioides difficile [8]): 0.03 µg/mL (≈ 0.072 µM)
- IC50 (DNA gyrase): 0.3 µM
- MIC90 (Staphylococcus aureus [9]): 0.5 µg/mL (≈ 1.2 µM)
- MIC90 (Escherichia coli [10]): 0.06 µg/mL (≈ 0.144 µM)
- IC50 [11]: 8.4 µM
- MIC90 [12]: 16 µg/mL (≈ 38.4 µM)
- IC50 [13]: 6.5 µM
- IC50 [14]: 15.5 µM

Compound: Cc1ccc(-c2nc3ccc(-c4ccc5nc(-c6ccc(C)cc6)[nH]c5c4)cc3[nH]2)cc1
- MIC90 [1]: 2 µg/mL (≈ 4.82 µM)
- IC50 [2]: 2 µM
- IC50 [3]: > 50 µM
- MIC90 (Staphylococcus aureus [4]): 0.03 µg/mL (≈ 0.0724 µM)
- MIC90 (Clostridioides difficile [5]): 0.06 µg/mL (≈ 0.145 µM)
- MIC90 (Escherichia coli [6]): > 64 µg/mL
- IC50 [7]: > 50 µM
- MIC90 (Clostridioides difficile [8]): 0.06 µg/mL (≈ 0.145 µM)
- IC50 (DNA gyrase): 5.6 µM
- MIC90 (Staphylococcus aureus [9]): 0.06 µg/mL (≈ 0.145 µM)
- MIC90 (Escherichia coli [10]): 0.06 µg/mL (≈ 0.145 µM)
- MIC90 [12]: 1 µg/mL (≈ 2.41 µM)
- IC50 [13]: > 50 µM
- IC50 [14]: 50.9 µM

Compound: COc1cccc(-c2nc3ccc(-c4ccc5nc(-c6cccc(OC)c6)[nH]c5c4)cc3[nH]2)c1
- IC50 [2]: 29 µM
- IC50 [3]: > 50 µM
- MIC90 (Staphylococcus aureus [4]): > 128 µg/mL
- MIC90 (Clostridioides difficile [5]): > 32 µg/mL
- MIC90 (Escherichia coli [6]): > 64 µg/mL
- IC50 [7]: > 50 µM
- MIC90 (Clostridioides difficile [8]): > 32 µg/mL
- IC50 (DNA gyrase): 8.8 µM
- MIC90 (Staphylococcus aureus [9]): > 128 µg/mL
- MIC90 (Escherichia coli [10]): > 64 µg/mL
- MIC90 [12]: > 16 µg/mL
- IC50 [13]: > 50 µM
- IC50 [14]: 70.3 µM

Compound: c1cc(-c2nc3cc(-c4ccc5[nH]c(-c6ccncc6)nc5c4)ccc3[nH]2)ccn1 [RIDINILAZOLE]
- IC50 [3]: > 50 µM
- MIC90 (Staphylococcus aureus [4]): > 128 µg/mL
- MIC90 (Clostridioides difficile [5]): 0.125 µg/mL (≈ 0.322 µM)
- MIC90 (Escherichia coli [6]): > 16 µg/mL
- IC50 [7]: > 50 µM
- MIC90 (Clostridioides difficile [8]): 0.06 µg/mL (≈ 0.154 µM)
- IC50 (DNA gyrase): > 50 µM
- MIC90 (Staphylococcus aureus [9]): > 128 µg/mL
- IC50 [11]: > 50 µM
- IC50 [14]: > 50 µM
